# From patent publication US4371537A, “Sulfur-substituted phenoxypyridines having antiviral activity” (The Dow Chemical Company, priority 1981, dated 1983)
# Assays:
# Cox A21 = test: Single Oral Dose test in mice challenged IP with Cox A21; type: in vivo, Swiss male mice; details: 600 mg/kg P.O. 3 h after IP challenge; >3.84 significant (95% confidence level)
# Method in brief: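 A single P.O. treatment with compound suspended in 0.5% hydroxypropyl methylcellulose was given 3 h after intraperitoneal Cox A21 challenge at a normally lethal dose in 8-12 g male Swiss mice. Survival followed 7-10 days; significance versus vehicle-treated infected mice by modified Mantel-Haenzel chi-square (>3.84, 95% level).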
# [1] = test system: Coxsackie A21 virus (Cox A21); test: Tissue culture testing, Coxsackie A21 virus in HeLa cells; type: cell-based; details: 48 and 72 hours, NA = not active at the standard test conditions, read-out: Cox A21: lowest concentration of the compound necessary to cause a 50 percent reduction in cytopathic effect
# Method in brief: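 HeLa monolayers, compound in Eagle's medium + fetal calf serum, then virus challenge; no-compound and no-virus controls. Value = lowest active concentration, μg/ml.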
# Rhinovirus Type 29 = test: Inhibition of cytopathic effect in WI-38 cell culture tubes, rhinovirus type 29; type: cell-based; details: Enterovirus, WI-38 cells, read-out: Inhibition grade, Rhinovirus Type 29; for inhibition at 25 µg/mL: 25 μg/ml
# Description: (§1) The test compound was dissolved in an appropriate solvent (generally dimethyl sulfoxide) and incubated at 56° C. for at least 15 minutes and this solution was then used to prepare various test solutions having the desired concentration of test compound in preheated WI maintenance medium (49% Eagles, 49% medium 199, 2% fetal calf serum and antibiotics).
# (§2) Triplicate cell culture tubes (WI-38 human embryonic lung cell culture tubes) were fed with 1 ml of medium containing the compound at specified concentrations and inoculated with 3-300 TCID50 (3-300 times the tissue culture infective dose 50, i.e., the dose required to infect 50% of the cell cultures tested). Simultaneous viral titrations were performed. The tissue cultures were supplemented with fresh medium when necessary (around 3-4 days) until viral titrations were completed.
# (§3) The cell culture tubes were examined dialy for cytopathic effect. […] Comparisons were made at that time with the percentage of cell sheet destruction in tubes containing virus compound mixtures. Observed differences of 75% or more were graded "+", 74-50% as "±", and less than 50% as "-" inhibition.
# Rhinovirus Type 75 = test: Inhibition of cytopathic effect in WI-38 cell culture tubes, rhinovirus type 75; type: cell-based; details: Enterovirus, WI-38 cells, read-out: Inhibition grade, Rhinovirus Type 75; for inhibition at 25 µg/mL: 25 μg/ml
# Description: as §1, §2, §3
# Coxsackie A21 virus = test: Continuous Oral Feeding test in mice challenged IP with Coxsackie A21 virus; type: in vivo; details: po, 0.06 % in diet, 240 h
# Method in brief: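 Activity judged by chi-square on 10-day deaths versus untreated controls, with values above 3.84 counted active at 95% confidence. The IP challenge (0.2 ml/mouse, HeLa-grown virus, 80 to 100% lethal in 8 to 12 g mice) came on day 1, after diet containing 0.06% (weight percent) compound began on day 0.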
# Rhinovirus Type 59 = test: Inhibition of cytopathic effect in WI-38 cell culture tubes, rhinovirus type 59; type: cell-based; details: Enterovirus, WI-38 cells, read-out: Inhibition grade, Rhinovirus Type 59; for inhibition at 25 µg/mL: 25 μg/ml
# Description: as §1, §2, §3
# [2] = test system: 20 different rhinoviruses; test: Summary of WI-38 tissue culture testing against 20 rhinoviruses; type: cell-based; details: 3.0 μg/ml
# Description: as §1, §2, §3
# rhinovirus type 5 (RV-5) = test: Tissue culture testing, rhinovirus type 5 in HeLa cells; type: cell-based; details: Enterovirus, 48 and 72 hours, NA = not active at the standard test conditions, read-out: RV-5: lowest concentration of the compound necessary to cause a 50 percent reduction in cytopathic effect
# Description: Monolayered HeLa cells in 16 millimeter (mm) tissue culture dishes were treated with 1 ml of culture medium (Eagles medium supplemented with fetal calf serum) containing subject compound at an appropriate concentration or containing no compound at all. Culture media such as those described herein are more fully described in standard texts, as for example, Kuchler's Biochemical Methods in Cell Culture and Virology, Dowden, Hutchinson and Ross, Inc., Stroudsberg, PA (1977). Following treatment, cells were challenged with 0.05 ml of rhinovirus type 1A (RV-1A), rhinovirus type 2 (RV-2) or Coxsackie A21 virus (Cox A21) in culture medium. Some of the compounds were also tested against rhinovirus type 5 (RV-5), rhinovirus type 8 (RV-8) or rhinovirus type 64 (RV-64). Cell controls received no viruses.
# ^2 Lowest concentration of the compound (μg/ml) necessary to cause
SMILES,"Single Oral Dose X^2 (chi-square, deaths vs virus control) (Cox A21)",EC50 [1],inhibition at 12.5 µg/mL (Rhinovirus Type 29; 12.5 μg/ml),inhibition at 12.5 µg/mL (Rhinovirus Type 75; 12.5 μg/ml),"Continuous Oral Feeding X^2 (chi-square, deaths vs control) (Coxsackie A21 virus)",inhibition at 12.5 µg/mL (Rhinovirus Type 59; 12.5 μg/ml),inhibition of the multiplication of the majority of the 20 test rhinoviruses [2],EC50 (rhinovirus type 5 (RV-5)),inhibition at 3 µg/mL (Rhinovirus Type 29; 3.0 μg/ml),inhibition at 3 µg/mL (Rhinovirus Type 75; 3.0 μg/ml),inhibition at 3 µg/mL (Rhinovirus Type 59; 3.0 μg/ml),inhibition at 25 µg/mL (Rhinovirus Type 29),inhibition at 25 µg/mL (Rhinovirus Type 75),inhibition at 25 µg/mL (Rhinovirus Type 59)
"CCS(=O)(=O)c1ccc(Oc2ccc(Cl)cc2)nc1 [Example 42, 2-(4-chlorophenoxy)-5-(ethylsulfonyl)pyridine]",46.453,3.12 µg/mL,≥ 75%,50 to 74%,17.64,≥ 75%,,,,,,,,
"CCS(=O)(=O)c1ccc(Oc2ccc(C(=O)c3ccccc3)cc2)nc1 [Example 43, (4-((5-(ethylsulfonyl)-2-pyridinyl)oxy)phenyl)phenylmethanone]",45.207,< 3.12 µg/mL,,,20.44,,failed to inhibit the multiplication of the majority of the 20 test rhinoviruses,12.5 µg/mL,≥ 75%,< 50%,< 50%,,,
"CCS(=O)(=O)c1ccc(Oc2ccc(Cl)c(Cl)c2)nc1 [Example 47, 2-(3,4-dichlorophenoxy)-5-(ethylsulfonyl)pyridine]",25.587,2.5 µg/mL,,,1.10,,,,,,,≥ 75%,< 50%,50 to 74%
"CS(=O)(=O)c1ccc(Oc2ccc(C(=O)c3ccccc3)cc2)nc1 [Example 31, (4-((5-(methylsulfonyl)-2-pyridinyl)oxy)phenyl)phenylmethanone]",19.383,0.125 µg/mL,,,24.397,,,6.25 µg/mL,,,,≥ 75%,< 50%,≥ 75%
